From patent publication EP2468882A1, “Aurora kinase polypeptides for identifying fungicidal compounds” (Bayer CropScience AG, priority 2010, dated 2012)

Tests used:
[1] = biological target: Komplex aus SEQ ID NO: 12 und SEQ ID NO: 16 (Mycosarcoma maydis (Ustilago maydis), UniProt A0A0D1E894); assay: IMAP fluorescence polarisation assay, inhibition of Aurora kinase (AK/AKA complex); assay type: biochemical, U. maydis; settings: final enzyme concentration 2 ng/µl, final ATP 35 µM, reaction time 50 min
Sequence of Komplex aus SEQ ID NO: 12 und SEQ ID NO: 16 (A0A0D1E894 entry or part of it): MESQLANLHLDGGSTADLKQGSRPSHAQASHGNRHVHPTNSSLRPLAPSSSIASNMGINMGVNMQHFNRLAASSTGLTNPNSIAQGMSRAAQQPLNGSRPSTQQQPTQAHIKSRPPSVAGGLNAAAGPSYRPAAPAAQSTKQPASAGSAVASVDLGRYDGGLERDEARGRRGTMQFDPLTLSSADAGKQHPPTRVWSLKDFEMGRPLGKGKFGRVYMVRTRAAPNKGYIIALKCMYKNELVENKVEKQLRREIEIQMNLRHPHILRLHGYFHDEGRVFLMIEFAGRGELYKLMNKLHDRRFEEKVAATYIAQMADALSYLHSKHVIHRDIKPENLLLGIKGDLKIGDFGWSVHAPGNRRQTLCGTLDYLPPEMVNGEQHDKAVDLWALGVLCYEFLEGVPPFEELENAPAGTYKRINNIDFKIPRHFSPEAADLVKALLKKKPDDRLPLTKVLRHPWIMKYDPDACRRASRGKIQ
Text: Assay 3: Für den kommerziell erhältlichen IMAP Assay (Molecular Devices) sind 2 Substrate für humane Aurorakinasen (Kemptide, Cat #R7331, Sequenz 5TAMRA-LRRASLG-OH und PKAtide, Cat #R7250, Lot #130188, Sequenz 5FAM-GRTGRRNSI-NH2) kommerziell erwerbbar. Der Assay wurde nach Herstellerangaben durchgeführt. • IMAP Progressive Binding Reagent: Cat #R7284, Lot #143859 • IMAP Progressive Binding Buffer A: Cat #R7285, Lot #42898 • IMAP 5x Reaction Buffer: Cat #R7206, Lot #33060
Der IMAP Fluoreszenz-Polarisations-Assay (Molecular Devices) beruht auf der spezifschen, hochafmen Interaktion zwischen Phosphatgruppen und trivalenten Metallionen. Durch die Kinasereaktion wird ein fluoreszentes Substrat phosphoryliert, welches daraufhin von den in der Stop-Lösung enthaltenen Metall-Kügelchen spezifisch gebunden wird. Durch diese Interaktion erhöht sich die Fluoreszenzpolarisation, was die Bestimmung der Kinaseaktivität ermöglicht. Der Assay wurde nach Angaben des Herstellers wie folgt ausgeführt: • 1 Vol. Inhibitor in 4% DMSO bzw. 4% DMSO • 1 Vol. Enzymlösung • 2 Vol. ATP/Substrat • 12 Vol. Stoplösung • Inkubation bei RT 30 min.
Enzymlösung: z. […]

U. maydis = assay: ED50 determination, growth inhibition of U. maydis in liquid culture; assay type: cell-based; settings: concentration at which growth in liquid culture is inhibited by 50%; 3 days, 20°C, OD at 600 nm
Procedure: Der ED50 Wert ist die Konzentration einer Verbindung, bei der das Wachstum von U. maydis in Flüssigkultur zu 50% gehemmt wird. Verbindungen für ED50-Bestimmungen wurden in Methanol + 4 g/l Emulgator (z. B. PS 16 von Bayer AG) zu 666,67facher Endkonzentration gelöst. 15 µl jeder Verbindung werden in 7 Konzentrationen bei getrocknet. Flüssigkulturen von U. maydis in Difco Potato Dextrose Broth (BD, Cat No #254920) wurden auf eine OD600 ~ 0,1 eingestellt und je 200 µl dieser Suspension zugegeben. Die Kulturen wurden 3 Tage bei 20°C, 600 Upm und 80% Luftfeuchte inkubiert. Anschließend wurde die OD bei 600 nm bestimmt und gegen die Inhibitor-Konzentration der Verbindung 1 aufgetragen. Als positive Kontrolle wurde Euparen (Dichlorfluarid; CAS 1085-98-9) verwendet, als negative Kontrolle Methanol + PS 16 ohne Inhibitor. Aus der gemessenen OD600 wurde der ED50-Wert bestimmt (Abb. 5). Der ED50 Wert der Verbindung 1 wurde zu 21,8 ppm ermittelt, der ED50 Wert von Dichlorfluarid wurde zu 1 ppm ermittelt. [formula] [formula] [formula] [formula] [formula] [formula] [formula] [formula] [formula] [formula] [formula] [formula] [formula] [formula] [formula] [formula] [formula] [formula] [formula] [formula] [formula] [formula] [formula] [formula] [formula] [formula] [formula] [formula]

`CN[C@@H]1C[C@H]2O[C@@](C)([C@@H]1OC)n1c3ccccc3c3c4c(c5c6ccccc6n2c5c31)C(=O)NC4` [Staurosporin] showed an IC50 [1] of 2.1 nM.
With `COCCOc1ccc(Nc2ncc(Cl)c(NC3CC3)n2)cc1` [Verbindung 1] the IC50 [1] was 8.8 nM and the “ED50 Wert” value (U. maydis) was 21,8 ppm.
With `CN(C)S(=O)(=O)N(SC(F)(Cl)Cl)c1ccccc1` [Dichlorfluarid] the “ED50 Wert” value (U. maydis) was 1 ppm.
